Laboratory results published in ChEMBL document CHEMBL1146976, “Radanamycin, a macrocyclic chimera of radicicol and geldanamycin” (Bioorg Med Chem Lett, 2006).
Active and inactive are the calls of the source. The rule behind the calls is not given here.

What was measured:
[1] = biological target: Heat shock protein HSP90 (Homo sapiens) (UniProt P07900+P08238); assay: Inhibition of Hsp90 assessed by degradation of client proteins Her2 and Akt; format: protein assay
MCF7 = assay: Antiproliferative activity against human MCF7 cells; format: functional, cell-based

SMILES: COc1c(O)cc2c(O)c1CC(C)OC(=O)c1c(O)cc(O)c(Cl)c1CCC(=O)N2 (configuration not stated) [RADANAMYCIN]
- Activity [1]: Active
- IC50 (MCF7): 1200 nM
